Experimental findings from US20240132492A1, “PYRIDOPYRIMIDINE-BASED COMPOUND AND APPLICATION THEREOF” (JINAN UNIVERSITY, priority 2021, published 2024) are described below.

Type in all cases: cell-based
One test concerns the target T1, AKT2 (Homo sapiens, UniProt P31751).
T1 construct: AKT1, AKT2, and AKT3 proteins in H1975-OR cells; endogenous in cells; host or cells: H1975-OR (osimertinib-resistant H1975)
The experiment in a line: Western Blot, degradation of AKT2 protein in H1975-OR cells. Conditions: 1000 nM, 24 hours, maximum degradation rate. Here is the method:
(§1) Cell line: Non-small cell lung cancer H1975-OR cell line, which is an Osimertinib resistant H1975 cell line, and could be obtained through low dose gradual addition culture. Specific method: H1975 cells were spread in a 10 cm culture dish at a convergence rate of 60-70%, added 50 nM of Osimertinib to the culture medium. After the cell state stabilized, the concentration of Osimertinib was gradually double to 3 μM.
(§2) Conventional Western Blot (immunoblotting) was used for detection, as follows: a certain number of H1975-OR cells were planted on a 96 well plate, adherent cultured in an incubator overnight, and added a certain concentration of compound to act for 24 hours. 1×SDS lysis buffer with protease and phosphatase inhibitors was used to lyse cells. Cell lysates were separated by SDS-PAGE and transferred to PVDF membrane. Then, at room temperature, the PCDF membrane was taken out and immersed in a sealing solution (5% BSA TBS solution containing 0.5% Tween-20) for sealing treatment for 1 hour, and then incubated with a specific primary antibody at 4° C. overnight. The imprints were washed with TBST and incubated with horseradish peroxidase (HRP) labeled secondary antibodies at room temperature for 2 hours. Finally, ECL plus fluorescence detection reagent (Thermo Scientific, Waltham, MA) was used for protein development, and the Amersham Imager 600 system (GE, America) was used for photography. The detection results were processed using ImageJ software to obtain the grayscale value G (Density).
In general terms: Immunoblotting shows a protein as a band on a membrane.

A further test concerns A431. The experiment in a line: CCK-8 tumor cell proliferation, A431. Conditions: Homo sapiens, A-431, A431 cells, 72 hours. The protocol: (§3) Tumor cells (see Table 2 to Table 5) were inoculated in 96-well plates in complete culture medium (2000-3000 cells/well). After overnight incubation, the compounds with different concentrations (0.000508 μM-10 μM) were used to treat the cells separately for 72 hours. CCK-8 (Cell Counting Kit 8, Dojindo Laboratories, Kumamoto, Japan) experiment was used to evaluate cell proliferation. GraphPad Prism 5.0 software (La Jolla, CA) was used to calculate the half-maximal inhibitory concentration (IC50) values by fitting the concentration response curve. Each IC50 value was represented as an average value±SD.

The target in another test is AKT3 (Homo sapiens, UniProt Q9Y243). The experiment in a line: Western Blot, degradation of AKT3 protein in H1975-OR cells. As to conditions: 1000 nM, 24 hours, maximum degradation rate. On the set-up: endogenous in cells; host or cells: H1975-OR (osimertinib-resistant H1975). The protocol: as §1, §2
Sequence of AKT3 (Q9Y243 whole entry): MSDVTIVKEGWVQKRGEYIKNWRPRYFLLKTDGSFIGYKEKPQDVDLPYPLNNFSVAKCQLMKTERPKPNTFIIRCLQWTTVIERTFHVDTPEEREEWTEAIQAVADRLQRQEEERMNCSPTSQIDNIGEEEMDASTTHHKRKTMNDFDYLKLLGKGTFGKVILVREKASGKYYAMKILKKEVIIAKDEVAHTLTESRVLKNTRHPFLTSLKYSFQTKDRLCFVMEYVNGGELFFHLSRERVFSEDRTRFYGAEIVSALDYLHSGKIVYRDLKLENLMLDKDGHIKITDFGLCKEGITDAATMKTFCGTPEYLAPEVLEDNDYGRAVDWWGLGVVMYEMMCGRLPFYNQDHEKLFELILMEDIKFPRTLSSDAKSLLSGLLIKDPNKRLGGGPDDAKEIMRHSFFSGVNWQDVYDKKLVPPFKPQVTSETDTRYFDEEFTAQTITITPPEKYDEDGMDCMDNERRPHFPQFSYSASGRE
In the next test the test system is H1975OR. The experiment in a line: CCK-8 tumor cell proliferation, H1975OR. As to conditions: H1975OR cells (Osimertinib resistant), 72 hours. Here is the method: as §1, §3
In another test the test system is H1975. The experiment in a line: CCK-8 tumor cell proliferation, H1975. Conditions: Homo sapiens, NCI-H1975, H1975 cells, 72 hours. Here is the method:
as §3

The subject of the next test is HCC827. The experiment in a line: CCK-8 tumor cell proliferation, HCC827. As to conditions: Homo sapiens, HCC827 cells, 72 hours. Here is the method:
as §3

The target of a further test is T2, AKT1 (Homo sapiens, UniProt P31749).
T2 construct: AKT1, AKT2, and AKT3 proteins in H1975-OR cells; endogenous in cells; host or cells: H1975-OR (osimertinib-resistant H1975)
T2 sequence (P31749 whole entry): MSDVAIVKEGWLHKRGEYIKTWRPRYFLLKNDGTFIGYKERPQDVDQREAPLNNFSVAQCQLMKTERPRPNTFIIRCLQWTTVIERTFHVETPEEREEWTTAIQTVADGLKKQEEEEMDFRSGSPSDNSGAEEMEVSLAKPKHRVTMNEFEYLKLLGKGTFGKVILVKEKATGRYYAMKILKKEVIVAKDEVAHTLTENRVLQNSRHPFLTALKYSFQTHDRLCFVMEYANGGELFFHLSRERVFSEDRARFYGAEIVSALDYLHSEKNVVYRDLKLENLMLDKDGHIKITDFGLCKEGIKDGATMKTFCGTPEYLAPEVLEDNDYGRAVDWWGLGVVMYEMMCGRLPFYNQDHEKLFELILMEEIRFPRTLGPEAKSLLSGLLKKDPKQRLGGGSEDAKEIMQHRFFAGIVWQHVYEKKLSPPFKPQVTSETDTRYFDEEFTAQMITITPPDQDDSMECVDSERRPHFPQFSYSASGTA
As to the kind of experiment: Western Blot, degradation of AKT1 protein in H1975-OR cells. Conditions: 1000 nM, 24 hours, maximum degradation rate. Here is the method: as §1, §2

The test system of the next test is H1299. The experiment in a line: CCK-8 tumor cell proliferation, H1299. Conditions: Homo sapiens, NCI-H1299, H1299 cells, 72 hours. The protocol:
as §3

In another test the test system is PC-9. The experiment in a line: CCK-8 tumor cell proliferation, PC-9. As to conditions: Homo sapiens, PC-9 cells, 72 hours. Here is the method:
as §3

Each structure is given as a SMILES string.

T1 sequence (P31751 whole entry): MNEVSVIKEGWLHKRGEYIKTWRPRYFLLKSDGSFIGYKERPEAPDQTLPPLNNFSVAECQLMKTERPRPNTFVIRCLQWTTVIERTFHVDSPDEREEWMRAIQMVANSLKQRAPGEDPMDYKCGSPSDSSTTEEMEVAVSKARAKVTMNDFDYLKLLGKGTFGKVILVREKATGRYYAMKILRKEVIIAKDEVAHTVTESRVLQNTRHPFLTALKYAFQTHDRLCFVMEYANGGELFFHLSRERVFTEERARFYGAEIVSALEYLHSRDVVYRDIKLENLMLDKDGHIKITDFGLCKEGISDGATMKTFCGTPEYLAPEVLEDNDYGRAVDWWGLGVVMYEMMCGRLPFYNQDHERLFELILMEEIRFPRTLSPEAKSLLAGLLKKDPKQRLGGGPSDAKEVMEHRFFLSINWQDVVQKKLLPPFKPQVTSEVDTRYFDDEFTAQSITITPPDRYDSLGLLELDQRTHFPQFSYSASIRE

For orientation: Dmax means the largest share of the target that was removed. The term IC50 denotes the concentration that gives 50% inhibition. Consider `C=CC(=O)Nc1cccc(-n2c(=O)cc(C)c3cnc(Nc4ccc(N5CCN(CCCCCCCCCCCCNC(=O)CC67CC8CC(CC(C8)C6)C7)CC5)cc4OC)nc32)c1` [ZX-HYT-05, N-(3-(2-((4-(4-(12-(2-(((3R, 5R, 7R)-adamantan-1-yl)acetylamino)dodecyl)piperazin-1-yl)-2-methoxyphenyl)amino)-5-methyl-7-oxypyridino [2,3-d]pyrimidin-8 (7H)-yl)phenyl)acrylamide], for which the Dmax at 1 µM amounted to 29.9% on AKT2, 71.9% at AKT3 and 34.4% on AKT1. Besides, the concentration for half-maximal inhibition (IC50) was 0.00806 ± 0.0003 µM with A431; 0.009 ± 0.002 µM in the test with H1975OR; 5.19 ± 4.59 µM in the test with H1975; 0.126 ± 0.0216 µM with HCC827; 0.338 ± 0.0855 µM in the test with H1299; 0.0083 ± 0.000333 µM in the test with PC-9.
With `C=CC(=O)Nc1ccc(-n2c(=O)cc(C)c3cnc(Nc4ccc(N5CCN(CCCCCCCCCCCCNC(=O)CC67CC8CC(CC(C8)C6)C7)CC5)cc4OC)nc32)cc1` [ZX-HYT-14, N-(4-(2-((4-(4-(12-(2-(((3R, 5R, 7R)-adamantan-1-yl)acetylamino)dodecyl)piperazin-1-yl)-2-methoxyphenyl)amino)-5-methyl-7-oxypyridino [2,3-d]pyrimidin-8 (7H)-yl)phenyl)acrylamide], the 50% inhibitory concentration (IC50) in the test with A431, in the test with H1975OR, in the test with H1975, in the test on HCC827, in the test on H1299 and in the test on PC-9 was more than 10 µM in each case.
With `COc1cc(N2CCN(CCCCCCCCCCCCNC(=O)CC34CC5CC(CC(C5)C3)C4)CC2)ccc1Nc1ncc2c(C)cc(=O)n(-c3cccc(NC(=O)C4CCCCC4)c3)c2n1` [ZX-HYT-13, N-(3-(2-((4-(4-(12-(2-(((3R, 5R, 7R)-adamantan-1-yl)acetylamino)dodecyl)piperazin-1-yl)-2-methoxyphenyl)amino)-5-methyl-7-oxypyridino [2,3-d]pyrimidin-8 (7H)-yl)phenyl)cyclohexane formamide], the 50% inhibitory concentration (IC50) in the test with A431 is 2.29 ± 0.0474 µM; in the test with H1975OR, 0.216 ± 0.032 µM; with H1975, 6.96 ± 6.04 µM; with HCC827, 10.7 ± 3.88 µM; with H1299 it was more than 10 µM; in the test on PC-9, more than 10 µM.
Turning to `COc1cc(N2CCN(CCCCCCCCCCCCNC(=O)CC34CC5CC(CC(C5)C3)C4)CC2)ccc1Nc1ncc2c(C)cc(=O)n(C3CCCC3)c2n1` [ZX-HYT-24, 2-(((3R, 5R, 7R)-adamantan-1-yl)-N-(12-(4-(4-(8-cyclopentyl-5-methyl-7-oxy-7,8-dihydropyridinyl [2,3-d]pyrimidin-2-yl)amino)-3-methoxyphenyl)piperazin-1-yl)dodecyl) acetamide], the maximal degradation (Dmax) at 1 µM turned out to be 0% at AKT2, 51.5% on AKT3 and 0% on AKT1. Besides, the IC50 in the test on A431 amounted to 0.212 ± 0.0653 µM; with H1975OR it was 0.734 ± 0.00594 µM; with H1975 it was 2.67 ± 0.471 µM; in the test on HCC827, 1.4 ± 0.248 µM.
As for `COc1cc(N2CCN(CCCCCCCCCCCCNC(=O)CC34CC5CC(CC(C5)C3)C4)CC2)ccc1Nc1ncc2c(C)cc(=O)n(-c3ccc(NC(=O)C4CC4)cc3)c2n1` [ZX-HYT-15, N-(4-(2-((4-(4-(12-(2-(((3R, 5R, 7R)-adamantan-1-yl)acetylamino)dodecyl)piperazin-1-yl)-2-methoxyphenyl)amino)-5-methyl-7-oxypyridino [2,3-d]pyrimidin-8 (7H)-yl)phenyl)cyclopropane formamide], the IC50 with A431 was more than 10 µM; with H1975OR, more than 10 µM; in the test with H1975, more than 10 µM; in the test with HCC827 it was more than 10 µM; in the test on H1299, more than 10 µM; with PC-9, 4.8 ± 0.501 µM.
As for `COc1cc(N2CCN(CCCCCCCCCCCCNC(=O)CC34CC5CC(CC(C5)C3)C4)CC2)ccc1Nc1ncc2c(C)cc(=O)n([C@H]3CC[C@@H](NC(=O)C4CC4)C3)c2n1` [ZX-HYT-20, N-((1R,3S)-3-(2-((4-(4-(12-(2-((3R, 5R, 7R)-adamantan-1-yl)acetylamino)dodecyl)piperazin-1-yl)-2-methoxyphenyl)amino)-5-methyl-7-oxypyridino [2,3-d]pyrimidin-8 (7H)-yl)cyclopentyl) cyclopropane formamide], the IC50 in the test with A431 was 0.106 µM; in the test on PC-9, 0.295 µM.
For `COc1cc(N2CCN(CCCCCCCCNC(=O)C3C[C@H]4C=C[C@@H]3C4)CC2)ccc1Nc1ncc2c(C)cc(=O)n(-c3cccc(NC(=O)C4CC4)c3)c2n1` (some centres unmarked) [ZX-HYT-60], the figures for the Dmax at 1 µM on AKT2, on AKT3 and at AKT1 were 0%, 18.9% and 13%, respectively. For the same compound, the IC50 was determined as 0.107 ± 0.0194 µM with H1975OR and 0.135 ± 0.0948 µM in the test with H1975.
On to `COc1cc(N2CCN(CCCCCCCCCCCCNC(=O)CC34CC5CC(CC(C5)C3)C4)CC2)ccc1Nc1ncc2c(C)cc(=O)n(-c3cccc(OCC4CC4)c3)c2n1` [ZX-HYT-40, 2-((3R, 5R, 7R)-adamantan-1-yl)-N-(12-(4-(4-((8-(3-(cyclopropylmethoxy)phenyl)-5-methyl-7-oxo-) 7,8-dihydropyridino [2,3-d]pyrimidin-2-yl)amino)-3-methoxyphenyl)piperazin-1-yl) dodecyl) acetamide], for which the results for the Dmax at 1 µM at AKT2, at AKT3 and at AKT1 were 30.7%, 53% and 32%, respectively. Moreover, the IC50 in the test on H1975OR came to 0.0609 ± 0.014 µM; in the test with H1975 it was 0.0864 ± 0.0296 µM.
The matching figures for `COc1cc(N2CCN(CCCCCCCCNC(=O)C3CCC(F)(F)CC3)CC2)ccc1Nc1ncc2c(C)cc(=O)n(-c3cccc(NC(=O)C4CC4)c3)c2n1` [ZX-HYT-34]: 67.5%, 56.6%, 55.4%, 0.25 ± 0.12 µM and 1.15 ± 0.42 µM.
The matching figures for `COc1cc(N2CCN(CCCCCCCCCCCCNC(=O)CC34CC5CC(CC(C5)C3)C4)CC2)ccc1Nc1ncc2c(C)cc(=O)n(-c3ccccc3)c2n1` [ZX-HYT-36, 2-((3R, 5R, 7R)-adamantan-1-yl)-N-(12-(4-(3-methoxy-4-((5-methyl-7-oxy-8-phenyl-7,8))-dihydropyridino [2,3-d]pyrimidin-2-yl)amino)phenyl) piperazin-1-yl) dodecyl) acetamide]: 0%, 12.3%, 0%, 0.107 ± 0.008 µM and 0.219 ± 0.0782 µM.
The matching figures for `COc1cc(N2CCN(CCCCCCCCNC(=O)C3C[C@H]4CC[C@@H]3C4)CC2)ccc1Nc1ncc2c(C)cc(=O)n(-c3cccc(NC(=O)C4CC4)c3)c2n1` (some centres unmarked) [ZX-HYT-61]: 31.5%, 15.9%, 14.2%, 0.103 ± 0.0592 µM and 0.0738 ± 0.0456 µM.
With `COc1cc(N2CCN(CCCCCCCCNC(=O)[C@@]34CC5C[C@@](C)(C[C@@](C)(C5)C3)C4)CC2)ccc1Nc1ncc2c(C)cc(=O)n(-c3cccc(NC(=O)C4CC4)c3)c2n1` [ZX-HYT-32], the maximal degradation (Dmax) at 1 µM at AKT2 was determined as 24.3%; at AKT3, 45.2%; on AKT1 it was 0%. The IC50 in the test with H1975OR came to 0.21 ± 0.04 µM; with H1975, 1.02 ± 0.24 µM.
The matching figures for `COc1cc(N2CCN(CCCCCCCCCCCCNC(=O)CC34CC5CC(CC(C5)C3)C4)CC2)ccc1Nc1ncc2c(C)cc(=O)n(-c3cccc(N(C)C)c3)c2n1` [ZX-HYT-43, 2-((3R, 5R, 7R)-adamantan-1-yl)-N-(12-(4-(4-((8-(3-(dimethylamino)phenyl)-5-methyl-7-oxy-7,8-dihydropyridino [2,3-d]pyrimidin-2-yl)amino)-3-methoxyphenyl)piperazin-1-yl)dodecyl) acetamide]: 30.5%, 37.9%, 57.5%, 0.172 ± 0.0204 µM and 0.257 ± 0.0423 µM.
